Test: Human HepG2 cell viability assay in 384 well format
Assay type: toxicity, cell-based
Design: dose 125 nL, time 70.5 hour; concentration not given beside the values
Details: HepG2 cells, read-out: Inhibition

Compound	cytotoxicity at 70.5 h [%]
Cc1cccc(-n2cc(CNc3ncnc4c3CCNCC4)cn2)c1	-10.3
CSc1ccc(CN(C)C(=O)c2cc3c([nH]c2=O)CCCC3=O)cc1	-2.82
CCn1cc(CN2CCC(CCC(=O)Nc3ccccc3Cl)CC2)cn1	12.4
Cc1ccccc1OC(C(=O)N1CCC2(CC1)CN(C)C(=O)O2)C(C)C (centres undefined)	-4.56
CN(C)C(=O)c1nn(C)c2c1CN(Cc1ccoc1)C2	-7.04
CN(C)S(=O)(=O)N1C[C@@H]2CC[C@H](C1)N(Cc1ccc(F)c(F)c1)C2	4.72
CCS(=O)(=O)N1C[C@H]2CCC[C@@]2(COc2ccccn2)C1	-21.9
O=C(NC1CC1)[C@H]1C[C@H]2OCC[C@H]2N(Cc2cccnc2)C1	-7.68
O=C(NCc1ccccc1)NCc1nc(-c2ccncc2)n[nH]1	-3.14
Cc1cccc(CN2CCc3c(nc(N4CCCCC4C)[nH]c3=O)C2)n1 (centres undefined)	-4.07
COCC1CCCN(C(=O)c2cc(Cn3ccc4ccccc43)[nH]n2)C1 (centres undefined)	-6.02
CCCn1ncnc1C(C)NC(=O)C1CCN(C(C)C)CC1 (centres undefined)	-4.07
CC(C)n1cnnc1CN(C)C1CCCNC1 (centres undefined)	-10.1
COC(=O)C1=NN2C(=NS(=O)(=O)c3ccccc32)N1	-89.7
CC(C)c1nc(C2CCCN2CCCc2nc3ccccc3o2)no1 (centres undefined)	-12.9
CCC(=O)Nc1cccc(OCC(=O)N(C)Cc2nc(C)c[nH]2)c1	-4.8
O=C(NC1CCCN(c2ncccn2)C1)c1ccoc1 (centres undefined)	-1.17
CCC(=O)N1CCCCC1c1nc(O)c2c(n1)CN(C(C)=O)CC2 (centres undefined)	-2.47
COc1nccnc1N1C[C@@H]2CC[C@H](C1)N(CC=C(C)C)C2=O	-20.8
CN(Cc1ccccc1NCc1cscn1)C(=O)c1cccs1	-3.79
O=C(Cc1ccccn1)N1C[C@@H](Oc2cccnc2)[C@H]2OCCC[C@H]21	28.2
Cn1ncc(NCc2cccc(COC(C)(C)C)c2)c(Cl)c1=O	7.28
CCN1CCN(c2ncc(-c3cc(C)no3)c(-c3ccc(C)s3)n2)CC1	-27.4

Compound	cytotoxicity at 70.5 h [%]
CCc1ccc(S(=O)(=O)Nc2cnccc2C)s1	-4.13
Cc1cc(NC(C)Cn2cccn2)n2nccc2n1 (centres undefined)	-12.5
Cc1noc(-c2cnc(NCC3CCCO3)nc2-c2ccco2)c1C (centres undefined)	-7.96
CC(=O)c1ccc(Cl)c(Cl)c1OCC(=O)NCC(F)(F)F	-8.87
COCCOc1ccc(NC(=O)N2CCCC2c2ccncc2)cn1 (centres undefined)	-11.8
O=C(Cn1cnnn1)N1CCCCC1Cn1cccn1 (centres undefined)	17.9
Cc1ccc(C(O)CNC(=O)CCCc2ccccn2)o1 (centres undefined)	-8.17
O=C(O)c1cccc(CC2CCN(c3ncccn3)CC2)c1	3.25
C[C@@H]1CN(C2CCOC2)C[C@]12CCN(Cc1cccnc1)C2=O (some centres undefined)	-10.6
COc1cccc(N2CCN(CC(O)c3cc(C)ccc3C)CC2)c1 (centres undefined)	30.4
Cc1cnccc1CN1CC[C@@](C)(O)[C@H](Oc2cccc(F)c2)C1	-1.49
Cc1cccc(C(=O)Nc2ccc(OC3CCOCC3)c(C)c2)n1	15.2
CS(=O)(=O)NC(c1ccccc1)c1ccc2c(c1)CCCO2 (centres undefined)	-6.34
O=S(=O)(c1cccnc1)N1CCN(Cc2nc(-c3ccco3)cs2)CC1	0.0264
Fc1cnc(N2CCC3(COCc4cnc(NCC5CC5)nc43)C2)nc1 (centres undefined)	-6.29
CCOc1cc(CN(C)CCCO)ccc1OC(F)F	-6.49
CC1CCC(N2CCC(NS(=O)(=O)CCCF)CC2)CC1 (centres undefined)	7.59
Cc1ccccc1CC(C)NC(=O)Nc1cnn(CC(N)=O)c1 (centres undefined)	-0.765
Cc1ccccc1C(=O)N1CCOC2(CNCCOC2)C1 (centres undefined)	-4.46
CN(C)C(=O)N1CCC2(CCC(C(=O)N3CCCC3)O2)CC1 (centres undefined)	-16.3
COCCn1cnc2ccc(NC(=O)c3ccc(OC)cc3)cc2c1=O	-9.11
COCCNC(=O)Cn1c(-c2cccc(F)c2)nc(C)c(CCO)c1=O	-7.96
COc1ccccc1OCC(=O)NS(=O)(=O)c1ccc(Cl)cc1F	13.3

Compound	cytotoxicity at 70.5 h [%]
Cc1n[nH]c(SCCNC2CCN(c3nc4ccccc4s3)CC2)n1	2
CN1CCN(Cc2cnc3n2CCN(C(=O)c2ccccn2)C3)CC1	-12.3
O=S(=O)(CCc1ccccc1)Cc1nc(C2CC2)no1	-13
NC(=O)CNC(=O)c1ccc(CNCc2ccc(Cl)cc2Cl)cc1	-28
CC(c1cccc(O)c1)N(C)S(=O)(=O)c1cccnc1 (centres undefined)	4.03
O=C(C1CCCOC1)N1CCN(CC(F)(F)F)c2ccccc21 (centres undefined)	-1.7
O=C(c1cnc2ccccn12)N1CCCC(c2ccn[nH]2)C1 (centres undefined)	-11.2
Cc1cccc(CN2CC[C@H]3[C@H]2CCN3Cc2cnn(C)c2)n1	30.5
Cc1nc(NCCC23CCCN2CCC3)cc(C2CCNCC2)n1	-7.1
O=C(CS(=O)(=O)CC1CCCCC1)NC1CCCCNC1=O (centres undefined)	-14.4
CN(Cc1nc(-c2ccccc2)c[nH]1)C(=O)NCC(=O)NC(C)(C)C	-5.84
COC(=O)C(NC(=O)c1ccc(NC2CC2)nc1)c1ccccc1 (centres undefined)	-5.38
Cc1csc(C2CCCCN2C(=O)CN(C)C(C)C)n1 (centres undefined)	25.2
CC(C)c1cc(C(=O)N2CCOCC2CC(=O)c2ccco2)nn1C (centres undefined)	-0.209
CN(C)CCN(C)C(=O)Nc1cc(F)cc(N2CCCC2)c1	-6.32
COCCNC(=O)[C@H]1CC[C@@H]2[C@@H](CCN2c2ncc(F)cn2)O1	-1.33
CC(Sc1nnnn1C1CCOCC1)C(F)(F)F (centres undefined)	-7.71
COCCN(C)CC(=O)N1CCCC2(CCC(=O)N(CC3CC3)C2)C1 (centres undefined)	-27.5
Cc1cc2ccncc2n1CC1(O)CCN(C(=O)c2ccncc2)CC1	-1.76
CN(Cc1noc2c1CCCC2)C(=O)CN1C(=O)CSc2ccccc21	3.41
F[C@@H]1CN(Cc2ccccc2)C[C@@H]1OCc1nc2ccccc2[nH]1	0.621
CC(C)C(=O)N1CCC(c2c(C(N)=O)sc3ccccc23)C1 (centres undefined)	18.5
COCc1noc(-c2cc(Cl)c3c(c2)OCCCO3)n1	-8.58

Compound	cytotoxicity at 70.5 h [%]
NCc1cn(CC2CCCN(C(=O)NCc3ccc(Cl)cc3)C2)nn1 (centres undefined)	2.71
Cc1noc(C)c1CN1CCc2ncc(CN(C)C)n2CC1	-8.78
COCCN1CCC2(CCN(Cc3nccs3)CC2)C1=O	-8.69
Cc1cccc(CN2CC[C@@H]3[C@@H]2CCN3C(=O)c2cc(C)on2)n1	-12.4
CCOc1ncccc1NC(=O)N1CCN(Cc2ccncc2)CC1	-4.21
CC(CO)NS(=O)(=O)c1cccc(C(C)C)c1 (centres undefined)	-9
CCc1cnc(NC(=O)NC2CCN(C3CCCC3)CC2)s1	-7.06
O=C(c1ccc(O)nc1)N1CCN(C(=O)c2ccc(F)c(F)c2)CC1	-2.92
COc1ccccc1OCCCc1cc(C#N)ccn1	6.71
CC(=O)NCCC(=O)NC(C)c1sc(-c2ccccc2F)nc1C (centres undefined)	-5.17
N#Cc1ccc(CNc2ncc(C#N)cc2Cl)cc1	0.2
Cc1cc(N2CCC(C(=O)O)(n3ccc(C(C)(C)C)n3)CC2)nc(N)n1	0.151
CN(Cc1cc(Br)cn1C)C(=O)c1ccsc1	-7.08
Cc1cnn(CCNCc2csc(-c3ccsc3)n2)c1	-6.72
CN(CC(=O)NCC(F)(F)F)Cc1cccc2c1OCCO2	14.8
O=S(=O)(NCCNc1cc(-n2cccn2)ncn1)c1cccs1	12.1
CCC(C)N(Cc1cnc(OC)nc1)Cc1ccsc1 (centres undefined)	-3.9
Cc1nc(C)n(C2CCCN(C(=O)c3ccnc(N(C)C)c3)C2)n1 (centres undefined)	-3.3
COCCN1CCC2(COCc3cnc(-c4ccccc4)nc32)C1 (centres undefined)	-8.87
CCCn1nnnc1CN(c1ccc(C)cc1)C(C)C	-5.93
Cc1ccsc1CCNC(C)C(=O)NC1CCCC1 (centres undefined)	-10.7
COc1ccc(CN2C[C@@H]3CN(Cc4ccncc4)C[C@@H]3C2=O)cc1	-8.45
O=C(c1cccnc1)N(Cc1ccncc1)C1CC1	-4.09

Compound	cytotoxicity at 70.5 h [%]
CSc1ccc(NCc2csc(CS(C)(=O)=O)n2)cc1F	-1.97
C=C(C)Cn1cc(C(N)=O)nc1C1CC1	20.9
COCC(=O)NC(C)Cc1cccc(OC)c1 (centres undefined)	0.122
COc1ccc(C2Nc3cc(Cl)ccc3C3=NCCN32)cc1O (centres undefined)	-1.91
Cc1noc(C)c1CN1C[C@@H]2COC[C@H](C(=O)N3CCOCC3)[C@@H]2C1	-8.43
Cc1ccccc1C(=O)NCCC(=O)NS(=O)(=O)c1cccnc1	19.3
Cc1ccc(NC(=O)CNC(C)Cc2ccsc2)cc1F (centres undefined)	-8.47
COc1ccc(-c2csc(N)c2C#N)cc1	-24.3
CCN1CCC(CC(=O)N(C)CC(=O)c2ccc(O)cc2)CC1	-8.66
COCC1CC2(CCN(S(=O)(=O)C3CC3)CC2)CN1c1ncccn1 (centres undefined)	14.2
COCC(=O)N1CCC(O)(CN2CCN(c3ccccc3)CC2)C1 (centres undefined)	-1.6
CC(C)C1COC2(CCN(Cc3ccco3)CC2)C1 (centres undefined)	-7.19
Oc1cc(CCC2CCCCN2)cc(-c2cccnc2)c1 (centres undefined)	-0.0954
O=C(c1sccc1C1CC1)N1CCN(CC(F)(F)F)CC1	-1.63
Cn1cc(CN2CCCC23CCN(c2nc4ccccc4s2)CC3)cn1	-4.41
NCC(=O)N1CCCC(c2cncc(Nc3ncccn3)n2)C1 (centres undefined)	-13.9
Cc1ccc(NC(=O)[C@H]2C[C@H](C(=O)O)CN(CC3CC3)C2)cn1	-21.8
Fc1ccc(C(NCc2nnc(C3CC3)o2)C2CCC2)cc1 (centres undefined)	-4.6
Cc1ccc2c(c1)C(=O)NCC1(CCN(C(=O)c3csc(C)c3)CC1)O2	-9.12
Cc1ncc(CN2CCC(c3ccnn3C)CC2)n1-c1ccccc1	2.82
COc1cc(CNC2CCN(c3ccccc3)C2)cc(OC)c1OC (centres undefined)	-6.84
Cc1cc(C)n(C2CCCN(C(=O)c3ccc(NC4CC4)nc3)C2)n1 (centres undefined)	-0.521
